Test results from ChEMBL document CHEMBL5442219.

Legend:
Details in all cases: Compound concentration 10 µM
[1] = target: D(3) dopamine receptor (Homo sapiens) (UniProt P35462)
Description: PDSP Primary Binding target: DRD3 - Compounds are tested at 10 uM concentration, plate are incubated at room temperature in the dark for 90 minutes. Reaction are stopped by vacuum filtration onto 0.3% polyethyleneimine soaked filter mats using Filtermate harvester. Scintilation cocktail is then melted onto microwave-dried filters on a hot plate and the radio activity is counted in Microbia counter.

[2] = target: T1, Muscarinic acetylcholine receptor M4 (Homo sapiens) (UniProt P08173)
T1 sequence (whole entry): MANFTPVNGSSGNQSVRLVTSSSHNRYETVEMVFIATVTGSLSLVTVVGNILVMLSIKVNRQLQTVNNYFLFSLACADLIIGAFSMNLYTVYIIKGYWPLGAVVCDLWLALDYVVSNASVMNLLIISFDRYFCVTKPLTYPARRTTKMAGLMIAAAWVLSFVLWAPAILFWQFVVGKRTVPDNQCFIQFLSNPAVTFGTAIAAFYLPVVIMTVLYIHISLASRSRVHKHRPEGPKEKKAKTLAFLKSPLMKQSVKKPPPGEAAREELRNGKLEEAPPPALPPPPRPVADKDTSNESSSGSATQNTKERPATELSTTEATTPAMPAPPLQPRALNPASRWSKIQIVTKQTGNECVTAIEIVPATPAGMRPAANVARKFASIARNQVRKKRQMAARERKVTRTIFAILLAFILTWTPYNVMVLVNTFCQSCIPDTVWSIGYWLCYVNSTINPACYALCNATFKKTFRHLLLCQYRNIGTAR
Description: PDSP Primary Binding target: CHRM4 - Compounds are tested at 10 uM concentration, plate are incubated at room temperature in the dark for 90 minutes. Reaction are stopped by vacuum filtration onto 0.3% polyethyleneimine soaked filter mats using Filtermate harvester. Scintilation cocktail is then melted onto microwave-dried filters on a hot plate and the radio activity is counted in Microbia counter.

[3] = target: 5-hydroxytryptamine receptor 1D (Homo sapiens) (UniProt P28221)
Chain of 5-hydroxytryptamine receptor 1D (Homo sapiens) (P28221 whole entry): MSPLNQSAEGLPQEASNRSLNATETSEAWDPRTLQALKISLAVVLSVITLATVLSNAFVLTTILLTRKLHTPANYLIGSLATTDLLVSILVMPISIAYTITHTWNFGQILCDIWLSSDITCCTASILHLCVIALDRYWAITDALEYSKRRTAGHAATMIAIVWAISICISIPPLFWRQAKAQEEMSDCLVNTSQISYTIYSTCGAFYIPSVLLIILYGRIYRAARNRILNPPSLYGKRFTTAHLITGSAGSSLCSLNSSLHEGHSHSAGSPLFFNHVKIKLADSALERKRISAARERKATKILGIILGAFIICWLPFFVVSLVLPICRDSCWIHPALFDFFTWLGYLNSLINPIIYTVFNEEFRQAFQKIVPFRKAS
Description: PDSP Primary Binding target: HTR1D - Compounds are tested at 10 uM concentration, plate are incubated at room temperature in the dark for 90 minutes. Reaction are stopped by vacuum filtration onto 0.3% polyethyleneimine soaked filter mats using Filtermate harvester. Scintilation cocktail is then melted onto microwave-dried filters on a hot plate and the radio activity is counted in Microbia counter.

[4] = target: Translocator protein (Homo sapiens) (UniProt P30536)
Chain of Translocator protein (Homo sapiens) (P30536 whole entry): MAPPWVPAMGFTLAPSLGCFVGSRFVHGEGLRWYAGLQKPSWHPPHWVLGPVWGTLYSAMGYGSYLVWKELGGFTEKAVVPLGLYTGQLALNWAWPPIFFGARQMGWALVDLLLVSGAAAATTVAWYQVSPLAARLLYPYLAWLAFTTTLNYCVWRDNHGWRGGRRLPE
Description: PDSP Primary Binding target: TSPO - Compounds are tested at 10 uM concentration, plate are incubated at room temperature in the dark for 90 minutes. Reaction are stopped by vacuum filtration onto 0.3% polyethyleneimine soaked filter mats using Filtermate harvester. Scintilation cocktail is then melted onto microwave-dried filters on a hot plate and the radio activity is counted in Microbia counter.

[5] = target: T2, Alpha-2B adrenergic receptor (Homo sapiens) (UniProt P18089)
T2 sequence (whole entry): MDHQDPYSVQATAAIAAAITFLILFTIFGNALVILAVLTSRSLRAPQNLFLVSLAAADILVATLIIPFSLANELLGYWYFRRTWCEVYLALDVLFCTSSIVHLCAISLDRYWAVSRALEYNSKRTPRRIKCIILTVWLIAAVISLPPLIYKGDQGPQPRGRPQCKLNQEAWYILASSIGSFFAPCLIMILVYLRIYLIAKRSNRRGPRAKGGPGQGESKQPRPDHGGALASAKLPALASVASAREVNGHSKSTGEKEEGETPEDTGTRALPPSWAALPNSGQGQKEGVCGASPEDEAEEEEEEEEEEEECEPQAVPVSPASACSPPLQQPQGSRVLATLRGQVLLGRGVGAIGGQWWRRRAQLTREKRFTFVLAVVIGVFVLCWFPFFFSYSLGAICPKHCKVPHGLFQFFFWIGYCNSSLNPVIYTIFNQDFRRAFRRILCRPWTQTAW
Description: PDSP Primary Binding target: ADRA2B - Compounds are tested at 10 uM concentration, plate are incubated at room temperature in the dark for 90 minutes. Reaction are stopped by vacuum filtration onto 0.3% polyethyleneimine soaked filter mats using Filtermate harvester. Scintilation cocktail is then melted onto microwave-dried filters on a hot plate and the radio activity is counted in Microbia counter.

[6] = target: Mu-type opioid receptor (Homo sapiens) (UniProt P35372)
Chain of Mu-type opioid receptor (Homo sapiens) (P35372 whole entry): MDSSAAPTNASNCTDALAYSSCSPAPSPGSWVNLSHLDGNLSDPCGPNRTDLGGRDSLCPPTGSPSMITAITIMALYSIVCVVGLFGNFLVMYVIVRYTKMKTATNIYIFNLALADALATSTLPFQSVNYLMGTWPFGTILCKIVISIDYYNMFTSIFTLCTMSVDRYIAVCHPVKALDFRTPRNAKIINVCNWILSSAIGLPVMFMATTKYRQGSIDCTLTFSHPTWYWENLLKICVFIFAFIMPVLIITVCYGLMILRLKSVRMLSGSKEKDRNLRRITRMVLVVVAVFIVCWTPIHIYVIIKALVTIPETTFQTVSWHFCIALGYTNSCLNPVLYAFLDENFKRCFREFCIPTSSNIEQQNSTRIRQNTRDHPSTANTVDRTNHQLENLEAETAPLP
Description: PDSP Primary Binding target: OPRM1 - Compounds are tested at 10 uM concentration, plate are incubated at room temperature in the dark for 90 minutes. Reaction are stopped by vacuum filtration onto 0.3% polyethyleneimine soaked filter mats using Filtermate harvester. Scintilation cocktail is then melted onto microwave-dried filters on a hot plate and the radio activity is counted in Microbia counter.

[7] = target: Sodium-dependent dopamine transporter (Homo sapiens) (UniProt Q01959)
Description: PDSP Primary Binding target: SLC6A3 - Compounds are tested at 10 uM concentration, plate are incubated at room temperature in the dark for 90 minutes. Reaction are stopped by vacuum filtration onto 0.3% polyethyleneimine soaked filter mats using Filtermate harvester. Scintilation cocktail is then melted onto microwave-dried filters on a hot plate and the radio activity is counted in Microbia counter.

[8] = target: Histamine H1 receptor (Homo sapiens) (UniProt P35367)
Description: PDSP Primary Binding target: HRH1 - Compounds are tested at 10 uM concentration, plate are incubated at room temperature in the dark for 90 minutes. Reaction are stopped by vacuum filtration onto 0.3% polyethyleneimine soaked filter mats using Filtermate harvester. Scintilation cocktail is then melted onto microwave-dried filters on a hot plate and the radio activity is counted in Microbia counter.

[9] = target: Histamine H3 receptor (Homo sapiens) (UniProt Q9Y5N1)
Description: PDSP Primary Binding target: HRH3 - Compounds are tested at 10 uM concentration, plate are incubated at room temperature in the dark for 90 minutes. Reaction are stopped by vacuum filtration onto 0.3% polyethyleneimine soaked filter mats using Filtermate harvester. Scintilation cocktail is then melted onto microwave-dried filters on a hot plate and the radio activity is counted in Microbia counter.

[10] = target: 5-hydroxytryptamine receptor 2B (Homo sapiens) (UniProt P41595)
Chain of 5-hydroxytryptamine receptor 2B (Homo sapiens) (P41595 whole entry): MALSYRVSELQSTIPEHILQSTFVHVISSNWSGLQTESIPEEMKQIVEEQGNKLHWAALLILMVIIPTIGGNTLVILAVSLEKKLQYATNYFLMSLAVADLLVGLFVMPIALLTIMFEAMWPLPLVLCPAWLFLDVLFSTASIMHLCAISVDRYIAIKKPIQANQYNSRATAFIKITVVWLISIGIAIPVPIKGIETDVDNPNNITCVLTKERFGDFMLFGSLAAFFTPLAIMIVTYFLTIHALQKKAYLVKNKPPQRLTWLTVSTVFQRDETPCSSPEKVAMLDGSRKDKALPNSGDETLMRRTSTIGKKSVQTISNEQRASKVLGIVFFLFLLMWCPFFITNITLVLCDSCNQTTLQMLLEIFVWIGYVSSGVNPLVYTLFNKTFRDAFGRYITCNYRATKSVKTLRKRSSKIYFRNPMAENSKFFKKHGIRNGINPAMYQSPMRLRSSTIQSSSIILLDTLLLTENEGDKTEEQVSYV
Description: PDSP Primary Binding target: HTR2B - Compounds are tested at 10 uM concentration, plate are incubated at room temperature in the dark for 90 minutes. Reaction are stopped by vacuum filtration onto 0.3% polyethyleneimine soaked filter mats using Filtermate harvester. Scintilation cocktail is then melted onto microwave-dried filters on a hot plate and the radio activity is counted in Microbia counter.

[11] = target: D(1B) dopamine receptor (Homo sapiens) (UniProt P21918)
Description: PDSP Primary Binding target: DRD5 - Compounds are tested at 10 uM concentration, plate are incubated at room temperature in the dark for 90 minutes. Reaction are stopped by vacuum filtration onto 0.3% polyethyleneimine soaked filter mats using Filtermate harvester. Scintilation cocktail is then melted onto microwave-dried filters on a hot plate and the radio activity is counted in Microbia counter.

[12] = target: Sodium-dependent noradrenaline transporter (Homo sapiens) (UniProt P23975)
Chain of Sodium-dependent noradrenaline transporter (Homo sapiens) (P23975 whole entry): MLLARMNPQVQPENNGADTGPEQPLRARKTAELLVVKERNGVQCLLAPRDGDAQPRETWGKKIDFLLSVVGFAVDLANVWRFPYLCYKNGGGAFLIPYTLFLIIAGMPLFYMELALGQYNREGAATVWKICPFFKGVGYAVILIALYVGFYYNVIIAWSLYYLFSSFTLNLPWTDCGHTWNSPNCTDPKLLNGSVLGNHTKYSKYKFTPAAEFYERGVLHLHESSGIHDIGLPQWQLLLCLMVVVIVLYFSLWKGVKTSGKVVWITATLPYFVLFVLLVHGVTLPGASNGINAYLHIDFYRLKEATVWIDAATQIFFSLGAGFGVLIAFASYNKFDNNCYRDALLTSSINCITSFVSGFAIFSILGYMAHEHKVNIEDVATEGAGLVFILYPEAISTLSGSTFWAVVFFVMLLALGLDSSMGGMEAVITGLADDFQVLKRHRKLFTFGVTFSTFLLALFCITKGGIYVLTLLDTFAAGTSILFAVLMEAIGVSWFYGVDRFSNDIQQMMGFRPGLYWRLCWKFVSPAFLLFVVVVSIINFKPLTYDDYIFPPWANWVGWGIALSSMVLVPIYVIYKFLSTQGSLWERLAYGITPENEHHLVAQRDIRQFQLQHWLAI
Description: PDSP Primary Binding target: SLC6A2 - Compounds are tested at 10 uM concentration, plate are incubated at room temperature in the dark for 90 minutes. Reaction are stopped by vacuum filtration onto 0.3% polyethyleneimine soaked filter mats using Filtermate harvester. Scintilation cocktail is then melted onto microwave-dried filters on a hot plate and the radio activity is counted in Microbia counter.

[13] = target: T3, 5-hydroxytryptamine receptor 1A (Homo sapiens) (UniProt P08908)
T3 sequence (whole entry): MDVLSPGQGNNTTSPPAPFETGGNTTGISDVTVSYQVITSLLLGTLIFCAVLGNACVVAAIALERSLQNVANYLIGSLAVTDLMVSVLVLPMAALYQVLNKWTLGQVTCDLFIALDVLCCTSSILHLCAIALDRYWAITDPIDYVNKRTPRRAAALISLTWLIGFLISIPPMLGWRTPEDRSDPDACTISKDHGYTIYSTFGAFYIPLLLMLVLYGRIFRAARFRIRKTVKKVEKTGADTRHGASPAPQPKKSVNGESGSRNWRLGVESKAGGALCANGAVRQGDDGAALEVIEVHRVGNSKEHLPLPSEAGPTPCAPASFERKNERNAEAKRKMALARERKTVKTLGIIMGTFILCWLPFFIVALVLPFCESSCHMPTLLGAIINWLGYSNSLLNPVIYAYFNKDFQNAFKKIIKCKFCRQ
Description: PDSP Primary Binding target: HTR1A - Compounds are tested at 10 uM concentration, plate are incubated at room temperature in the dark for 90 minutes. Reaction are stopped by vacuum filtration onto 0.3% polyethyleneimine soaked filter mats using Filtermate harvester. Scintilation cocktail is then melted onto microwave-dried filters on a hot plate and the radio activity is counted in Microbia counter.

[14] = target: D(2) dopamine receptor (Homo sapiens) (UniProt P14416)
Chain of D(2) dopamine receptor (Homo sapiens) (P14416 whole entry): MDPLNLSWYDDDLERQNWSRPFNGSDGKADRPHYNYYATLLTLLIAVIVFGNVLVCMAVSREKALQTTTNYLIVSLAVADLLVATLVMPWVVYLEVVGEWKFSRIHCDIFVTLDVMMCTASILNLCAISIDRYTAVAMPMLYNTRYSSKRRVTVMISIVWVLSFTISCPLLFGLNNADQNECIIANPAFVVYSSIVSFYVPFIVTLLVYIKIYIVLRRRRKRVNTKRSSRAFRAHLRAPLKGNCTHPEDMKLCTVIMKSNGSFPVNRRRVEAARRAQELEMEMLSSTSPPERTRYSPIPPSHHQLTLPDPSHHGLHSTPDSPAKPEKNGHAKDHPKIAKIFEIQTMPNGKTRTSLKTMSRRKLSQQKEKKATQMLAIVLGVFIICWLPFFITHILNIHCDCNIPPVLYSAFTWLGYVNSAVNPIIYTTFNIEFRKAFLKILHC
Description: PDSP Primary Binding target: DRD2 - Compounds are tested at 10 uM concentration, plate are incubated at room temperature in the dark for 90 minutes. Reaction are stopped by vacuum filtration onto 0.3% polyethyleneimine soaked filter mats using Filtermate harvester. Scintilation cocktail is then melted onto microwave-dried filters on a hot plate and the radio activity is counted in Microbia counter.

[15] = target: 5-hydroxytryptamine receptor 1E (Homo sapiens) (UniProt P28566)
Description: PDSP Primary Binding target: HTR1E - Compounds are tested at 10 uM concentration, plate are incubated at room temperature in the dark for 90 minutes. Reaction are stopped by vacuum filtration onto 0.3% polyethyleneimine soaked filter mats using Filtermate harvester. Scintilation cocktail is then melted onto microwave-dried filters on a hot plate and the radio activity is counted in Microbia counter.

[16] = target: Histamine H2 receptor (Homo sapiens) (UniProt P25021)
Description: PDSP Primary Binding target: HRH2 - Compounds are tested at 10 uM concentration, plate are incubated at room temperature in the dark for 90 minutes. Reaction are stopped by vacuum filtration onto 0.3% polyethyleneimine soaked filter mats using Filtermate harvester. Scintilation cocktail is then melted onto microwave-dried filters on a hot plate and the radio activity is counted in Microbia counter.

[17] = target: Beta-1 adrenergic receptor (Homo sapiens) (UniProt P08588)
Chain of Beta-1 adrenergic receptor (Homo sapiens) (P08588 whole entry, looked up): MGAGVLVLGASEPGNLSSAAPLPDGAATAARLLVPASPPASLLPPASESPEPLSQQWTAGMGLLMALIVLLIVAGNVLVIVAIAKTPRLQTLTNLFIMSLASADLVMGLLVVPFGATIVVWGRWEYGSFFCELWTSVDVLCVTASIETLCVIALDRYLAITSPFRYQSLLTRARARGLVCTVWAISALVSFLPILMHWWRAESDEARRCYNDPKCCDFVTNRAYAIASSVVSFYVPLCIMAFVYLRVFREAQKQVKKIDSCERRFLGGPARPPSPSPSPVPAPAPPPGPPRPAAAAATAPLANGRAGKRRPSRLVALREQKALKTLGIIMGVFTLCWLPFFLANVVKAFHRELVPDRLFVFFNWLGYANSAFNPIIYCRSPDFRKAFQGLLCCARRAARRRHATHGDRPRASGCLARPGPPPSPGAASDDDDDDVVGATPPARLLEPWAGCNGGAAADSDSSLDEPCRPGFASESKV
Description: PDSP Primary Binding target: ADRB1 - Compounds are tested at 10 uM concentration, plate are incubated at room temperature in the dark for 90 minutes. Reaction are stopped by vacuum filtration onto 0.3% polyethyleneimine soaked filter mats using Filtermate harvester. Scintilation cocktail is then melted onto microwave-dried filters on a hot plate and the radio activity is counted in Microbia counter.

[18] = target: Delta-type opioid receptor (Homo sapiens) (UniProt P41143)
Description: PDSP Primary Binding target: OPRD1 - Compounds are tested at 10 uM concentration, plate are incubated at room temperature in the dark for 90 minutes. Reaction are stopped by vacuum filtration onto 0.3% polyethyleneimine soaked filter mats using Filtermate harvester. Scintilation cocktail is then melted onto microwave-dried filters on a hot plate and the radio activity is counted in Microbia counter.

[19] = target: D(1A) dopamine receptor (Homo sapiens) (UniProt P21728)
Chain of D(1A) dopamine receptor (Homo sapiens) (P21728 whole entry): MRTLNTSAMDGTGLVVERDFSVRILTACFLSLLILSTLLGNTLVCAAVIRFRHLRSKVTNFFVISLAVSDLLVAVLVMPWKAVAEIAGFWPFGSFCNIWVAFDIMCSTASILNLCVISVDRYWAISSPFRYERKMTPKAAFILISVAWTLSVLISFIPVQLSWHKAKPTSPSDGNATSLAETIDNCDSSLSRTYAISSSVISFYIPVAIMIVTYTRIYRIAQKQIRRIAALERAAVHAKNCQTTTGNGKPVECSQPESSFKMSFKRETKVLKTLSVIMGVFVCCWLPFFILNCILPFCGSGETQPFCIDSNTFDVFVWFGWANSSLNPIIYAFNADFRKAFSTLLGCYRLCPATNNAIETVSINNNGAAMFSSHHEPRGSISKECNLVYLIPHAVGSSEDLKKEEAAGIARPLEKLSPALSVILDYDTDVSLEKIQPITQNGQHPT
Description: PDSP Primary Binding target: DRD1 - Compounds are tested at 10 uM concentration, plate are incubated at room temperature in the dark for 90 minutes. Reaction are stopped by vacuum filtration onto 0.3% polyethyleneimine soaked filter mats using Filtermate harvester. Scintilation cocktail is then melted onto microwave-dried filters on a hot plate and the radio activity is counted in Microbia counter.

[20] = target: Muscarinic acetylcholine receptor M3 (Homo sapiens) (UniProt P20309)
Chain of Muscarinic acetylcholine receptor M3 (Homo sapiens) (P20309 whole entry, looked up): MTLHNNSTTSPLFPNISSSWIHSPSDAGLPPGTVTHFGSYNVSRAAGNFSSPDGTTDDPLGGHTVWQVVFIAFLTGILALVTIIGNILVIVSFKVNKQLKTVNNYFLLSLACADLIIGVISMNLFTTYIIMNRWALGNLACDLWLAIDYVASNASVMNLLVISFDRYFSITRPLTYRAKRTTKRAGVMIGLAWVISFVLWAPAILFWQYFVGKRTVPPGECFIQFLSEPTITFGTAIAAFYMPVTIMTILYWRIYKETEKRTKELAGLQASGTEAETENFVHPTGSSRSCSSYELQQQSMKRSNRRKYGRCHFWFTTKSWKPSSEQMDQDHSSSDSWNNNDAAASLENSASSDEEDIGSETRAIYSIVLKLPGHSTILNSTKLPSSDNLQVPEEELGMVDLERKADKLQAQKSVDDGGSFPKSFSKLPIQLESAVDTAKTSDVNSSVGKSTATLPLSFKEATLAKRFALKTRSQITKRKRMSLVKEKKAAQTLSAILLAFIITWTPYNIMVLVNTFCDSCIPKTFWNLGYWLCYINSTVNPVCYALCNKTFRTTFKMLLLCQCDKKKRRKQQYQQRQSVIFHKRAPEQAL
Description: PDSP Primary Binding target: CHRM3 - Compounds are tested at 10 uM concentration, plate are incubated at room temperature in the dark for 90 minutes. Reaction are stopped by vacuum filtration onto 0.3% polyethyleneimine soaked filter mats using Filtermate harvester. Scintilation cocktail is then melted onto microwave-dried filters on a hot plate and the radio activity is counted in Microbia counter.

[21] = target: Sigma non-opioid intracellular receptor 1 (Homo sapiens) (UniProt Q99720)
Description: PDSP Primary Binding target: SIGMAR1 - Compounds are tested at 10 uM concentration, plate are incubated at room temperature in the dark for 90 minutes. Reaction are stopped by vacuum filtration onto 0.3% polyethyleneimine soaked filter mats using Filtermate harvester. Scintilation cocktail is then melted onto microwave-dried filters on a hot plate and the radio activity is counted in Microbia counter.

[22] = target: Kappa-type opioid receptor (Homo sapiens) (UniProt P41145)
Description: PDSP Primary Binding target: OPRK1 - Compounds are tested at 10 uM concentration, plate are incubated at room temperature in the dark for 90 minutes. Reaction are stopped by vacuum filtration onto 0.3% polyethyleneimine soaked filter mats using Filtermate harvester. Scintilation cocktail is then melted onto microwave-dried filters on a hot plate and the radio activity is counted in Microbia counter.

[23] = target: Beta-3 adrenergic receptor (Homo sapiens) (UniProt P13945)
Chain of Beta-3 adrenergic receptor (Homo sapiens) (P13945 whole entry, looked up): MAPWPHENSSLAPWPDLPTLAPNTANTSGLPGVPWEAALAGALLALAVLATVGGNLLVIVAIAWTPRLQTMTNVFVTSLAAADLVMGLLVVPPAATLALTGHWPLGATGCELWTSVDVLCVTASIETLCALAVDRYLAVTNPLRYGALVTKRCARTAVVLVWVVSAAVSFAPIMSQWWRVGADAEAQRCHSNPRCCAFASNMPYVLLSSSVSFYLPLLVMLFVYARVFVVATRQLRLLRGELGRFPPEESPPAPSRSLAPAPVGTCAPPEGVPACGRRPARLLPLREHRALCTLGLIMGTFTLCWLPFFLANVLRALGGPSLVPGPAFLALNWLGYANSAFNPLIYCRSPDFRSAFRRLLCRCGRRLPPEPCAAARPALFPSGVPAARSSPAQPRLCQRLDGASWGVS
Description: PDSP Primary Binding target: ADRB3 - Compounds are tested at 10 uM concentration, plate are incubated at room temperature in the dark for 90 minutes. Reaction are stopped by vacuum filtration onto 0.3% polyethyleneimine soaked filter mats using Filtermate harvester. Scintilation cocktail is then melted onto microwave-dried filters on a hot plate and the radio activity is counted in Microbia counter.

Chain of D(3) dopamine receptor (Homo sapiens) (P35462 whole entry): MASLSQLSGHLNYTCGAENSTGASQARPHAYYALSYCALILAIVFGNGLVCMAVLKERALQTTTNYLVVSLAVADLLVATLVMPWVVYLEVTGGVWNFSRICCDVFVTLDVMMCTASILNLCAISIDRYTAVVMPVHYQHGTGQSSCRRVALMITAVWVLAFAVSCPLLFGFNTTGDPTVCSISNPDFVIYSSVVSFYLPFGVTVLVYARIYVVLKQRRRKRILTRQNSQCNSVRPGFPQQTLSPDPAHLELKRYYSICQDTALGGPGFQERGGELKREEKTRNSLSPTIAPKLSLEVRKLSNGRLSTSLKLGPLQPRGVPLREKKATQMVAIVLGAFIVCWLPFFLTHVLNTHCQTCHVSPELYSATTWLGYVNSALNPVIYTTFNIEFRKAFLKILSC

Row | SMILES | inhibition [1] | inhibition [2] | inhibition [3] | inhibition [4] | inhibition [5] | inhibition [6] | inhibition [7] | inhibition [8] | inhibition [9] | inhibition [10] | inhibition [11] | inhibition [13] | inhibition [14] | inhibition [15] | inhibition [16] | inhibition [17] | inhibition [18] | inhibition [19] | inhibition [21] | inhibition [23] | also measured
1 | Cc1csc(NC(=O)c2cc(F)cc(Oc3cncnc3)c2)n1 | 72% | -5.33% | 5.84% | 37.4% | 6.73% | -8.28% | 56.1% | -6.12% | 2.1% | 26.7% | 46% | 20.4% | 21% | -3.74% | 28.4% | -2.16% | -0.43% | -5.62% | 37.2% |  | inhibition [12]: 10.9%; inhibition [20]: -2.7%; inhibition [22]: 18.9%
2 | Cc1c(C2=CCN(C(=O)N(C)C(C)C)CC2)nnn1-c1cccnc1F | -1.95% | -9.61% |  | -1.56% | 21.3% | 36.2% |  | 60.9% | -3.59% | 6.62% |  | 17% | 11.9% | 20.2% | 29.8% | -5.97% |  |  | 48.4% | 14.8% | inhibition [20]: 1.95%
3 | Cc1nnn(-c2ccc(-c3ccc(C4(C(=O)O)CC4)cc3)cc2)c1NC(=O)O[C@H](C)c1ccccc1 | 34.8% |  | 16.8% | 3.3% | 4.78% | -8.07% | 35% | 52.8% | -3.65% | -0.33% | 43.6% | 2.96% | 25.4% | 1.32% | 4.74% | -7.78% | 7.05% | -4.64% | 20.9% | 24.9% | inhibition [12]: 2.8%; inhibition [20]: -2.63%; inhibition [22]: -4.59%
4 | COC1CCN(c2cccc(-c3cc(NC(C)=O)nc(-n4nc(C)cc4C)n3)n2)CC1 |  |  |  | 70.3% | -0.88% | 27.3% | 49.2% | 14.4% | 1.55% | 30.3% | 3.58% | 23.3% | 12.8% | 15.2% | 26% | 41.4% | -6% | -3.87% | 80.2% | 22.6% | 
5 | COc1ccnc(N2CCC3(CCCN(Cc4c[nH]c5ccccc45)C3=O)CC2)n1 | 28.5% | -7.79% | 13.2% | 75.8% | -7.28% | -4.41% | 44.7% | 23.1% | 0.7% | 23.6% | 20.4% | 72.4% | 7% | -3.29% | -7.83% |  | 41.8% | -4.13% | 16% | -5.97% | inhibition [12]: 16.6%; inhibition [22]: 6.61%
